Test results as given in patent publication US20140037742A1, “ALGINATE MICROPARTICLES AND METHODS OF USING THE SAME” (priority 2012, published 2014).

System: Staphylococcus epidermidis
Assay: Antimicrobial testing, zones of inhibition around saturated discs on agar plates
Type: cell-based
Conditions: positive control disc, all test plates
Procedure: Each disc was saturated with different test materials and zones of inhibition were measured after plates were incubated for 24 and 48 hours.
The synthesized microparticles were also tested for their antimicrobial activity against Staphylococcus epidermidis, a substitute for the pathogenic Staphylococcus aureus.

[H]/N=C(/N)N[C@H]1[C@H](O)[C@@H](O)[C@H](O[C@@H]2O[C@@H](C)[C@](O)(C=O)[C@H]2O[C@@H]2O[C@@H](CO)[C@H](O)[C@@H](O)[C@@H]2NC)[C@@H](N/C(N)=N\[H])[C@@H]1O [Streptomycin] was tested, and the zone of inhibition was “large, consistent zone of inhibition”.
